Reference: US5013756A, “Catechol derivatives, a process of preparation thereof, and therapeutical compositions containing the same” (priority 1985, dated 1991)
pIC50: −log10 of the molar value.

Assays:
[1] = target: T1, cyclooxygenase (human platelets microsomes) (Homo sapiens, UniProt P23219); assay: Cycloxygenase inhibition in human platelets microsomes; type: biochemical; conditions: cyclooxygenase (PGE2/TxB2), pH 7.9, 37° C.
T1 construct: human platelets microsomes; from tissue; host or cells: human platelet microsomes (microsomal powder)
T1 sequence (P23219 24-599): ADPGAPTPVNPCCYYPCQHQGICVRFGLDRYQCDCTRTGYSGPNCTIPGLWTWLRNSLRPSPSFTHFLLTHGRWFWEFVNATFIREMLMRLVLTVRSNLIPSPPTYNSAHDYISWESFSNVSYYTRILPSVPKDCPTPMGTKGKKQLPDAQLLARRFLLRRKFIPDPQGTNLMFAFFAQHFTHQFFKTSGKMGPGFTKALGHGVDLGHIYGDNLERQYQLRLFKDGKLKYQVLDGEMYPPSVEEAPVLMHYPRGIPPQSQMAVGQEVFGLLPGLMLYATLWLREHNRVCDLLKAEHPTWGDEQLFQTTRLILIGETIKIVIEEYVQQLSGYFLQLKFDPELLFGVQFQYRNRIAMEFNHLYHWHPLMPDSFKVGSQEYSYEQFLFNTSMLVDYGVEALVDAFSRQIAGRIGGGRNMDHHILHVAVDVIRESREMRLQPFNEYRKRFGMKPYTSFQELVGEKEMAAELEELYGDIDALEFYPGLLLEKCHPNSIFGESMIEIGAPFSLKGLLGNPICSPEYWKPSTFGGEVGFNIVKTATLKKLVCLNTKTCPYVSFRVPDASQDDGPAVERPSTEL
Procedure: The enzymatic assay was carried out in silanized glassware according to the procedure of P. Ho, P. Walters and H, Sullivan (Prostaglandins 12, 951 1976). The reaction mixture containing 50 mM Tris HCl buffer, pH 7.9, 5mM 2-Tryptophan, […] methemoglobin, 0.2 mg of microsomal powder, and the test compound in a total volume of 0.2 ml was incubated at 37° C. for 5 minutes before the addition of 10 μl of 20 μM^14 C arachidonic acid (0.08 μCI). After 5 minute incubation, the reaction was terminated by the addition of 10 μl of 1M citric acid.
The mixture was extracted four times with 0.5 ml of anhydrous diethyl ether and dried with sodium sulphate. The residue was resuspended in approximately 40 μl of ether and submitted to chromatography on silica gel plates. The elution system consisted of diethyl ether/methanol/acetic acid (90:1:2). The RF values were measured relative to arachidonic acid. Thin layer chromatography plates (TLC) were exposed on LKB ultrafilm for about 24 hours. Partial identification of the spots were carried out by running standards (PGA2, PGB2, PGE2, PGF2c, PXB2, arachidonic acid) in the same solvent system. Quantitative results were obtained by scanning the developed film with a transmission densitometer (EC Apparatus 910) interfaced with a Hewlett Packard 3390A integrator.
The activity of the substances of the cyclooxygenase is quantified by the 2 spots corresponding to PGE2 and TxB2 (ratio PGE2 /TxB2).

xanthine oxidase = xanthine oxidase (Bos taurus, UniProt P80457); assay: In vitro screening of compounds as potential inhibitors of xanthine oxidase; type: biochemical; conditions: xanthine oxidase 0.01 units/ml, xanthine 5.10^-5 M, pH 7.4
Sequence of xanthine oxidase (P80457 whole entry): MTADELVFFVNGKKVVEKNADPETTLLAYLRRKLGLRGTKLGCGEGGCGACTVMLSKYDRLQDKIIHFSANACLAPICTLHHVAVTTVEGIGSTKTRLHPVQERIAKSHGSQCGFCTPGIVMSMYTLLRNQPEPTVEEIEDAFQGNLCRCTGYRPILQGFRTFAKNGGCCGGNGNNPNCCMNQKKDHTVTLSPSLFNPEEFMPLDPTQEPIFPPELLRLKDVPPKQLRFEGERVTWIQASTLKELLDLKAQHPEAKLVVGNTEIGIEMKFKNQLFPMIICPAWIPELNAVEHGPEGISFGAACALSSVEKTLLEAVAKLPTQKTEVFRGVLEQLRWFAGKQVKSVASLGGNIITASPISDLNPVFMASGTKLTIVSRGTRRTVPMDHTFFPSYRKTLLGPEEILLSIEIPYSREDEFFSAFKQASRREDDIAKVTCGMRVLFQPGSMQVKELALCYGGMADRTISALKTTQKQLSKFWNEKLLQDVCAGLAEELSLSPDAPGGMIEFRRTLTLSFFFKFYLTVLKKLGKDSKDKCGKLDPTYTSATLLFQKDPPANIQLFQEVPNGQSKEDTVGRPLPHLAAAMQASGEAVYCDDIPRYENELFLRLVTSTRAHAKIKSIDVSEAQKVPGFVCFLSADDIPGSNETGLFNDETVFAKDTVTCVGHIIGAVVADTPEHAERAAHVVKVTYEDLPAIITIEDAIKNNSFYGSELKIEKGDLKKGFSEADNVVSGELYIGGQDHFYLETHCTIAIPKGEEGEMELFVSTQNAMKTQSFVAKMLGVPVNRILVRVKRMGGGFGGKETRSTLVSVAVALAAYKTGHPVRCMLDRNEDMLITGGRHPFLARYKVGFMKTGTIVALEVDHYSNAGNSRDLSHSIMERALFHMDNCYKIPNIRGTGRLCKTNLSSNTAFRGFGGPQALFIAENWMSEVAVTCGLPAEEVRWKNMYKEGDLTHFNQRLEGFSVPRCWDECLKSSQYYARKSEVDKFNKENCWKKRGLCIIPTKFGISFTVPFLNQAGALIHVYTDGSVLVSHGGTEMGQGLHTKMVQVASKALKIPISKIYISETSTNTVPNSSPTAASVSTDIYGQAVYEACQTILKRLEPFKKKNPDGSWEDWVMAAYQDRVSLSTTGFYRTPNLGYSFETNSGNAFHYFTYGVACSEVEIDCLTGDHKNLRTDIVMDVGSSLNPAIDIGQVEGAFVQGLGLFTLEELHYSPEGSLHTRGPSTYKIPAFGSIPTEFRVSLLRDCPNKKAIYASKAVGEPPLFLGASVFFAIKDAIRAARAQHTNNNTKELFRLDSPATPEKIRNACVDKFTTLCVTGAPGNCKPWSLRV
From the text: A unit of activity was defined as a change of 0.001 units/minute.

[2] = target: T2, 5-lipoxygenase (human leucocytes) (Homo sapiens, UniProt P09917); assay: Experiment No. 1: inhibition of 5-lipoxygenase in human leucocytes stimulated by ionophore (5-HETE, LTB4); type: cell-based; conditions: Experiment No. 1, 5-HETE, ionophore A23187 alone
T2 construct: human leucocytic lipoxygenase; endogenous in cells; host or cells: human (polynuclear) leucocytes
T2 sequence (P09917 1-674): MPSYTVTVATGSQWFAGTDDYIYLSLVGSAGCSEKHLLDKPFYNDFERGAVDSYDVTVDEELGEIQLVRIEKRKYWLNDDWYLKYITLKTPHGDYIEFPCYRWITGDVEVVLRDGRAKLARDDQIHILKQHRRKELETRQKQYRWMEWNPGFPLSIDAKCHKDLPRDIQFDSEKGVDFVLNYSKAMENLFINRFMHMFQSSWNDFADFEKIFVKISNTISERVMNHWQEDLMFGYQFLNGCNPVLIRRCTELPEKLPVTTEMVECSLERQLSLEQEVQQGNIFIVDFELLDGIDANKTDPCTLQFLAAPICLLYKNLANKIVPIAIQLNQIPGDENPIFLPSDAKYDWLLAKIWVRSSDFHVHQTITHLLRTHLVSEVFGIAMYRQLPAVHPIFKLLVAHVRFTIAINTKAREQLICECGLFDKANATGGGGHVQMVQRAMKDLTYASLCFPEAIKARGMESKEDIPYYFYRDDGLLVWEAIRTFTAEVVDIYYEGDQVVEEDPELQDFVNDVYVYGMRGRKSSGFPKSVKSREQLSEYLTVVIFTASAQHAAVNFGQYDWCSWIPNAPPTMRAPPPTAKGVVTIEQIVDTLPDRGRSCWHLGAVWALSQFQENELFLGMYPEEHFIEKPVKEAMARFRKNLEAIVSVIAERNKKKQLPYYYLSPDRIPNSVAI
Procedure: (§1) (a) Inhibition on 5- and 12- lipoxygenases human polynuclear
(§2) Protocol for experiment No. 1:
(§3) 2. Stimulation with 1 μg ionophore (A23187)/ml for 4 minutes.
(§4) 3. Stopping of the incubation with 1 volume of methanol.
(§5) 4. Analysis by RP-HPLC, colomn C18, 5 μm.
(§6) 5. Measurement of the height of the peaks and comparison with the internal standard (PGB2).

[3] = target: T3, 12-lipoxygenase (human leucocytes) (Homo sapiens, UniProt P18054); assay: Experiment No. 1: inhibition of 12-lipoxygenase in human leucocytes stimulated by ionophore (12-HETE); type: cell-based; conditions: Experiment No. 1, 12-HETE, ionophore A23187 alone
T3 construct: human leucocytic lipoxygenase; endogenous in cells; host or cells: human (polynuclear) leucocytes
T3 sequence (P18054 1-663): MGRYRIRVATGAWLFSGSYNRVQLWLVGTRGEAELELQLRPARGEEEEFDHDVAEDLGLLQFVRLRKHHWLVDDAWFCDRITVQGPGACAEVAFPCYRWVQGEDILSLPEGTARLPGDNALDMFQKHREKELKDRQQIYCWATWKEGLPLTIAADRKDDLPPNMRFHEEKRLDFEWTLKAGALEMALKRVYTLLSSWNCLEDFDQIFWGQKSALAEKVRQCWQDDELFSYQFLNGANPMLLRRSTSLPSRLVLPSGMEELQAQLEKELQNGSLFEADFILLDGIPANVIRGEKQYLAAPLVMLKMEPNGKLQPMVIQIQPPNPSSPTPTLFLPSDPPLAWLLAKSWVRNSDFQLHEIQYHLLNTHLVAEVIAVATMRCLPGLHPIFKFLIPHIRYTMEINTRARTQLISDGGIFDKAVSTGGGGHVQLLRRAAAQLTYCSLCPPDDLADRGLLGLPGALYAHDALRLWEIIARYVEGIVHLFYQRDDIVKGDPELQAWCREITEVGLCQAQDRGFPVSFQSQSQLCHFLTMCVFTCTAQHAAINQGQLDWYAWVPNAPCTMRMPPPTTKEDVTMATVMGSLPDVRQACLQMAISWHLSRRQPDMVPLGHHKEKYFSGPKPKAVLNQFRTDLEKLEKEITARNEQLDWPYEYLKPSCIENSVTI
Procedure: as §1, §2, §3, §4, §5, §6

[4] = target: T2, 5-lipoxygenase (human leucocytes); assay: Experiment No. 2: inhibition of 5-lipoxygenase in human leucocytes stimulated by ionophore and arachidonic acid (5-HETE, LTB4); type: cell-based; conditions: for pIC50: Experiment No. 2, 5-HETE, ionophore A23187 and arachidonic acid, read-out: IC50 5-HETE; for IC50: Experiment No. 2, LTB4, ionophore A23187 and arachidonic acid, read-out: IC50 LTB4 (converted)
Procedure: (§7) (b) Inhibition on 5-, 12- and 15- lipoxygenases human polynuclear
(§8) Protocol for experiment No. 2:
(§9) 2. Stimulation with 10 μg of arachidonic acid and 1 μg of ionophore (A23187)/ml for 4 minutes.
(§10) 3. Stopping of the incubation with 1 volume of methanol and analysis by RP-HPLC.
(§11) 4. Measurement of the height of the peaks and comparison with the internal standard (PGB2).
(§12) It will be noted that in experiment No. 1, the leucocytes have been stimulated by the ionophore alone whereas in experiment No. 2, the cells have been stimulated with ionophore and arachidonic acid.

[5] = target: T4, 15-lipoxygenase (human leucocytes) (Homo sapiens, UniProt P16050); assay: Experiment No. 2: inhibition of 15-lipoxygenase in human leucocytes stimulated by ionophore and arachidonic acid (15-HETE); type: cell-based; conditions: Experiment No. 2, 15-HETE, ionophore A23187 and arachidonic acid
T4 construct: endogenous in cells; host or cells: human (polynuclear) leucocytes
T4 sequence (P16050 1-662): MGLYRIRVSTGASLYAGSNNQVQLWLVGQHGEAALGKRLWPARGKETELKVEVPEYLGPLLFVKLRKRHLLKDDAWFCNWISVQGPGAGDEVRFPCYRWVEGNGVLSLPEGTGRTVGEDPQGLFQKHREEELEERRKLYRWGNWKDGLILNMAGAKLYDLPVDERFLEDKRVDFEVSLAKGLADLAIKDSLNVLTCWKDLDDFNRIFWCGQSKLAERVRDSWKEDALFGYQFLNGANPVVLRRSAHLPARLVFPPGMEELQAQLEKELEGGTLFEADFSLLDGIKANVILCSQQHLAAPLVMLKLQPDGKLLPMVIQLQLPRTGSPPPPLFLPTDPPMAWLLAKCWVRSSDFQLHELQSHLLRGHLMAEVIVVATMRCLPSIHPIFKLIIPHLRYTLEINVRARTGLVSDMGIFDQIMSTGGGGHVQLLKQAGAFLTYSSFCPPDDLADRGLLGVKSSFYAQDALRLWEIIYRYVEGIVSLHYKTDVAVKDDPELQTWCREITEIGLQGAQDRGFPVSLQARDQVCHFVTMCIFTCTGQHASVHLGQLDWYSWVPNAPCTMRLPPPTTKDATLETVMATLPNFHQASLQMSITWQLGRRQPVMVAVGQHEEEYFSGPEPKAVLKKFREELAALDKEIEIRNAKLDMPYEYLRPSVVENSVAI
Procedure: as §7, §8, §9, §10, §11, §12

HHT (human leucocytes) = assay: Experiment No. 2: HHT formation in human leucocytes stimulated by ionophore and arachidonic acid; type: cell-based; conditions: Leucocyte, ionophore A23187 and arachidonic acid
Procedure: as §7, §8, §9, §10, §11

[6] = target: T3, 12-lipoxygenase (human leucocytes); assay: Experiment No. 2: inhibition of 12-lipoxygenase in human leucocytes stimulated by ionophore and arachidonic acid (12-HETE); type: cell-based; conditions: Experiment No. 2, 12-HETE, ionophore A23187 and arachidonic acid
Procedure: as §7, §8, §9, §10, §11, §12

guinea pig ileum = conditions: histamine relative to LTC 4, molar basis; cited from earlier work

Work on CC1CCC(C(C)C)C(Sc2ccc(O)c(O)c2)C1 (centres unmarked) [drawing 22] yielded a pIC50 [1] of 4.77.

Compound CCCCCCC(C)Sc1ccc(O)c(O)c1 (centres unmarked) [drawing 23] has a pIC50 [1] of 5.46.

For Oc1ccc(S)cc1O [drawing 27], the pIC50 (xanthine oxidase) was 3.63.

In the case of CCC(C)CSc1ccc(O)c(O)c1 (centres unmarked) [drawing 28], the pIC50 (xanthine oxidase) was 3.29.

With CCCCCCC(C)Sc1ccc(O)c(O)c1 (centres unmarked) [drawing 29] the pIC50 (xanthine oxidase) was 3.25.

With CCC(C)CSc1ccc(O)c(O)c1 (centres unmarked) [drawing 30] the pIC50 [2] was 6.00 and the pIC50 [3] was 6.00.

With Oc1ccc(S)cc1O [drawing 31] the pIC50 [2] was 5.70 and the pIC50 [3] was 5.70.

Compound Oc1ccc(S)cc1O [drawing 32] has a pIC50 [4] of 6.00, an IC50 [4] of 3 µM and a pIC50 [5] of 4.30. It also gave a pIC50 (HHT (human leucocytes)) of 4.70.

For CCC(C)CSc1ccc(O)c(O)c1 (centres unmarked) [drawing 33], the IC50 [4] was 3 µM, the pIC50 [6] was 5.00 and the pIC50 [5] was 5.00. For the same compound, the pIC50 (HHT (human leucocytes)) was 4.30.

Compound CCCCCCC(C)Sc1ccc(O)c(O)c1 (centres unmarked) [drawing 34] has a pIC50 [4] of 6.00, an IC50 [4] of 1 µM and a pIC50 [6] of 5.70. For the same compound, the pIC50 [5] was 5.00 and the pIC50 (HHT (human leucocytes)) was 5.70.

In the case of NCCc1c[nH]cn1 [histamine], the “times less active than LTC 4 on a molar basis” value (guinea pig ileum) is given as 200 times.
